Reference: US11149066B2, “Thrombospondin 1-binding peptide” (DAIICHI SANKYO COMPANY, LIMITED, priority 2016, dated 2021)
Where two headings read alike, the source gives them in different places. Positions of bridges follow the written chain, without caps; N, C: chain ends. Non-standard residues stand in square brackets, D forms with d. Residues, ends and D or L forms follow the SMILES beside them. 2Nal = N[C@@H](Cc1ccc2ccccc2c1)C(=O)O; Nle = CCCC[C@H](N)C(=O)O

Experiments:
[1] = tested on: C57BL/6 mice; experiment: Blood flow improvement tests (femoral artery/vein ligation and excision, laser Doppler); assay type: in vivo; conditions: after 7 days of surgery; for % change (vs. vehicle): blood flow ratio ischemia/nonischemia; for %, ischemia/nonischemia: blood flow ratio of ischemic limb to non-ischemic limb, laser Doppler
Description: (Test Example 3) Blood Flow Improvement Tests
Seven to nine-week-old male C57BL/6 mice were purchased from Charles River Laboratories Japan Inc., and acclimated over one week by feeding with a FR-2 solid diet (produced by Funabashi Farm Co., Ltd.). The rearing facility switched between light and dark modes in a 12-hour cycle with light turning on at 7 a.m and turning off at 7 p.m. Under isofluorane inhalation anaesthesia, the left thighs of the mice were dissected, and the superficial femoral arteries and veins (from just below the deep femoral arteries to the popliteal artery and vein) were ligated and excised. After animal models were made, the test substances (Compounds 24, 28, 40 to 45, and 58) were each dissolved in a solution of 20 mM lactic acid and 5% (w/v) Lutrol, and intraperitoneally injected into mice once daily.
(Blood Flow Improvement Test 1)
Compound 24 (10 mg/kg)-treated group
(Blood Flow Improvement Test 2)
Compound 28 (10 mg/kg)-treated group
(Blood Flow Improvement Test 3)
Compound 40 (10 mg/kg)-treated group
Compound 41 (10 mg/kg)-treated group
(Blood Flow Improvement Test 4)
Compound 42 (10 mg/kg)-treated group
Compound 43 (10 mg/kg)-treated group
Compound 44 (10 mg/kg)-treated group
Compound 45 (10 mg/kg)-treated group
(Blood Flow Improvement Test 5)
Compound 58 (10 mg/kg)-treated group
Blood flows were measured in ischemic (left) and non-ischemic (right) limbs using a laser Doppler perfusion imager (LDPI; PIM III, Perimed, Inc.). Blood flow values were evaluated by the ratio of ischemic limb flow to non-ischemic limb flow.
Blood flow values from the mice were the lowest immediately after surgery and then gradually recovered. All of the test substances investigated in the animal models of this study improved blood flow recovery after surgery as compared to vehicle treatment. After 7 days of surgery, the blood flows in the test substance-treated groups were higher than in the vehicle-treated mice.

[2] = target: human TSP1 (Homo sapiens, UniProt P07996); experiment: Cell adhesion inhibition assay (HUVEC adhesion to TSP1-coated plate); assay type: cell-based
Chain of human TSP1 (P07996 19-1170 limits assumed): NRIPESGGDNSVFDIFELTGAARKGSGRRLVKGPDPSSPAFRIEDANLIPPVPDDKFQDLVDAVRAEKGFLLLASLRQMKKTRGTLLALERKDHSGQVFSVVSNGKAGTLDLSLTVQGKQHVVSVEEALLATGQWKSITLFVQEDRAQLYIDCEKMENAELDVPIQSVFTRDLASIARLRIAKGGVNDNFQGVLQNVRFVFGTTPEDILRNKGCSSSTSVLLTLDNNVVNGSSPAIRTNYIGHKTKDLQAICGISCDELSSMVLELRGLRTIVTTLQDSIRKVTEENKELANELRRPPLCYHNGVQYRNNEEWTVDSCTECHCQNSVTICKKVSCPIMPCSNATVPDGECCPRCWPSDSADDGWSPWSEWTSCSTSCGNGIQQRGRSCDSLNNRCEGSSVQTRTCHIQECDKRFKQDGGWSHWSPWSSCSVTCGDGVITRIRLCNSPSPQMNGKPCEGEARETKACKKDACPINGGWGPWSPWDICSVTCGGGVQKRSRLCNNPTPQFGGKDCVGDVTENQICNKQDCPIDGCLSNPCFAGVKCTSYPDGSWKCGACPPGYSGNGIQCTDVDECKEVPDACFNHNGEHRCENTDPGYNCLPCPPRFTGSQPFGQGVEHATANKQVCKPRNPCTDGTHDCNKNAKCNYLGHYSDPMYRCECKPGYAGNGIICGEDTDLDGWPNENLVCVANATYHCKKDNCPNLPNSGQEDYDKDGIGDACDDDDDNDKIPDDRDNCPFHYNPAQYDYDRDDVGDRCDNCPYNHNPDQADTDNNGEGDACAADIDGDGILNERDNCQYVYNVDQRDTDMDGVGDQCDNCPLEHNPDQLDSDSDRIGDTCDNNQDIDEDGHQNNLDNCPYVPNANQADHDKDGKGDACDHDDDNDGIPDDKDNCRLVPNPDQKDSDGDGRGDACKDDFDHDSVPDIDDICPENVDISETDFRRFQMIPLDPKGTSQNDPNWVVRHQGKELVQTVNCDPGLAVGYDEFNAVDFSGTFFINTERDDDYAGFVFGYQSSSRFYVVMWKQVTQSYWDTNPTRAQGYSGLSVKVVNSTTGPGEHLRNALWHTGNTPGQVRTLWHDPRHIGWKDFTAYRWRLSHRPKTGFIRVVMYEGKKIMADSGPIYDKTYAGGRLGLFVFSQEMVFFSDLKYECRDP
Protocol: As referred to herein, the TSP1 inhibitory activity refers to the activity to inhibit one or more effects of TSP1, including angiostatic effect. The TSP1 inhibitory activity is measured by a cell adhesion inhibition assay using human TSP1 and vascular endothelial cells as described hereinbelow in the Examples section. In this assay, when the 50% inhibitory concentration (IC5O) of a test substance is 200 nM or less, the test substance is determined to have TSP1 inhibitory activity.
(Test Example 1) Cell Adhesion Inhibition Assay
I. Materials and Reagents
96 well Non-treated White with clear bottom (Coster, 3632)
BrightMax adhesive sealing films (EXCEL Scientific, WT50)
Proteosave®SS 15 mL (Sumitomo Bakelite, MS-52150)
Thrombospondin human platelet (Calbiochem, 605225)
EGM-2 MV (Lonza, CC-3202): for HUVEC passaging
Collagen coated dish (IWAKI, 4020-010): for HUVEC passaging
Lipidure®-BL802 (NOF Corporation), 5% solution
Albumin solution (35%) fraction V from Bovine (Sigma, A7979)
CellTiter-Glo (Promega, G7572)
Thrombospondin 1 vial (25 μg) was dissolved in TBS (+2 mM CaCl2; the same shall apply hereunder) to make a 200 μg/mL solution, which was diluted with TBS to a concentration of 10 μg/mL in Proteosave® 15 mL tube. The 10 μg/mL solution was dispensed into a 96 well plate at a volume of 50 μL/well (no reservoir was used since the protein easily adsorbs on it), and the plate was left to stand at 4° C. overnight.
Lipidure® was diluted 10-fold with TBS to make a 0.5% solution. After a buffer was discarded from the plate that had been coated at the step of <Plate coat> as described above, the 0.5% solution was dispensed into all wells to be used at a volume of 100 μL/well, and the plate was left to stand at room temperature for 1 hour.
A 0.2 μM solution of each sample was prepared using a dilution buffer (DMEM+0.5% BSA). 2 μL of the 0.2 μM solution was diluted with 500 μL, of dilution buffer to prepare a diluted sample. As a vehicle control, DMSO was diluted in the same way as the samples.
A blocking solution was discarded from the plate that had been treated at the step of <Plate blocking> as described above, and the plate was washed three times with 150 μL/well of TBS. The washing solution used for the third washing was completely sucked out by an aspirator, and the diluted sample was dispensed into the plate at a volume of 50 μL/well. Then, the plate was left to stand at room temperature for 15 to 30 minutes.
To maintain HUVECs, EGM2-MV and a collagen coated dish were used (the cells were ceased to be used after 10th or 1 lth passage since the cell proliferation rate declined at this stage). The cells were dispersed with 0.05% Trypsin/EDTA, harvested in DMEM/0.5% BSA, and centrifuged at 1000 rpm for 3 minutes. After removal of supernatant, the cells were washed once with a DMEM buffer. The cells were resuspended in a DMEM buffer, counted for cell number, and diluted to 10000 cells/50 μL. The cell suspension was dispensed at a volume of 50 μL/well into the plate into which the sample had been dispensed, mixed gently, and incubated at 37° C. for 2.5 hours.
After cell adhesion was confirmed, the culture medium was completely removed by an aspirator, and 100 μL/well of DMEM/0.5% BSA was gently dispensed. Then, DMEM/0.5% BSA was completely removed by an aspirator, and 50 μL/well of DMEM/0.5% BSA was dispensed. After a white seal was applied to the bottom of the plate, 50 μL/well of CellTiter-Glo® was dispensed, and the solution was stirred for 2 minutes and left to stand at room temperature for 8 minutes. […] was detected using EnVision Xcite Multilabel Reader (produced by Perkin Elmer).
On the basis of the measured fluorescence values, the IC50 values (nM) of the different macrocyclic polypeptides for inhibition of cell adhesion were calculated.

[3] = HUVEC adhesion to TSP1-coated plate, read-out: cell adhesion inhibition (Table 4)

Row | IC50 [2, 3] [nM] | SMILES | other results
1 |  | CC[C@H](C)[C@@H]1NC(=O)[C@H](Cc2ccc3ccccc3c2)NC(=O)CSC[C@@H](C(N)=O)NC(=O)[C@H](C(C)C)NC(=O)[C@H](Cc2c[nH]c3ccccc23)NC(=O)[C@H](CCCCN)NC(=O)[C@H](C(C)C)NC(=O)[C@H](Cc2ccc3ccccc3c2)NC(=O)[C@H](CC(N)=O)NC(=O)[C@H](CCCNC(=N)N)NC(=O)CNC(=O)[C@H](CO)NC1=O [Compound 28] ({CH2CO}-[2Nal]ISGRN[2Nal]VKWVC-NH2; thioether N-12) | % change (vs. vehicle) [1]: 1.8%; %, ischemia/nonischemia [1]: 40.79%
2 |  | CC[C@H](C)[C@@H]1NC(=O)[C@H](Cc2ccc3ccccc3c2)NC(=O)CSC[C@@H](C(N)=O)NC(=O)[C@H](C(C)C)NC(=O)[C@H](Cc2c[nH]c3ccccc23)NC(=O)[C@H](CCCCN)NC(=O)[C@H](C(C)C)NC(=O)[C@H](Cc2c[nH]c3ccccc23)NC(=O)[C@H](CC(=O)O)NC(=O)[C@H](CCCNC(=N)N)NC(=O)CNC(=O)[C@H](CO)NC1=O [Compound 40] ({CH2CO}-[2Nal]ISGRDWVKWVC-NH2; thioether N-12) | IC50 ([2]; HUVEC adhesion to human platelet thrombospondin-coated plate, 2.5 hours, CellTiter-Glo, read-out: Cell adhesion IC50): 16.1 nM; % change (vs. vehicle) [1]: 6.4%; %, ischemia/nonischemia [1]: 46.53%
3 |  | CC[C@H](C)[C@@H]1NC(=O)[C@H](Cc2ccc3ccccc3c2)NC(=O)CSC[C@@H](C(N)=O)NC(=O)[C@H](C(C)C)NC(=O)[C@H](Cc2c[nH]c3ccccc23)NC(=O)[C@H](Cc2c[nH]cn2)NC(=O)[C@H](C(C)C)NC(=O)[C@H](Cc2c[nH]c3ccccc23)NC(=O)[C@H](CC(N)=O)NC(=O)[C@H](CCCNC(=N)N)NC(=O)CNC(=O)[C@H](CO)NC1=O [Compound 41] ({CH2CO}-[2Nal]ISGRNWVHWVC-NH2; thioether N-12) | % change (vs. vehicle) [1]: 32.7%; %, ischemia/nonischemia [1]: 58.05%
4 | 15.5 | CCCC[C@@H]1NC(=O)[C@H](Cc2c[nH]c3ccccc23)NC(=O)[C@H](CC(=O)O)NC(=O)[C@H](CCCNC(=N)N)NC(=O)CNC(=O)[C@H](CO)NC(=O)[C@H]([C@@H](C)CC)NC(=O)[C@H](Cc2ccc3ccccc3c2)NC(=O)[C@H]([C@@H](C)O)NC(=O)CSC[C@@H](C(N)=O)NC(=O)[C@H](C(C)C)NC(=O)[C@H](Cc2c[nH]c3ccccc23)NC(=O)[C@H](CCCCN)NC1=O [Compound 85] ({CH2CO}-T[2Nal]ISGRDW[Nle]KWVC-NH2; thioether N-13) | 
5 | 14.2 | CCCC[C@@H]1NC(=O)[C@H](Cc2c[nH]c3ccccc23)NC(=O)[C@H](CC(=O)O)NC(=O)[C@H](CCCNC(=N)N)NC(=O)CNC(=O)[C@H](CO)NC(=O)[C@H]([C@@H](C)CC)NC(=O)[C@H](Cc2ccc3ccccc3c2)NC(=O)[C@H](CCC(N)=O)NC(=O)CSC[C@@H](C(N)=O)NC(=O)[C@H](C(C)C)NC(=O)[C@H](Cc2c[nH]c3ccccc23)NC(=O)[C@H](CCCCN)NC1=O [Compound 86] ({CH2CO}-Q[2Nal]ISGRDW[Nle]KWVC-NH2; thioether N-13) | 
6 | 17.2 | CCCC[C@@H]1NC(=O)[C@H](Cc2c[nH]c3ccccc23)NC(=O)[C@H](CC(=O)O)NC(=O)[C@H](CCCNC(=N)N)NC(=O)CNC(=O)[C@H](CO)NC(=O)[C@H]([C@@H](C)CC)NC(=O)[C@H](Cc2ccc3ccccc3c2)NC(=O)[C@H](CCCCN)NC(=O)CSC[C@@H](C(N)=O)NC(=O)[C@H](C(C)C)NC(=O)[C@H](Cc2c[nH]c3ccccc23)NC(=O)[C@H](CCCCN)NC1=O [Compound 90] ({CH2CO}-K[2Nal]ISGRDW[Nle]KWVC-NH2; thioether N-13) | 
7 | 17.1 | CCCC[C@@H]1NC(=O)[C@H](Cc2c[nH]c3ccccc23)NC(=O)[C@H](CC(=O)O)NC(=O)[C@H](CCCNC(=N)N)NC(=O)CNC(=O)[C@H](CO)NC(=O)[C@H]([C@@H](C)CC)NC(=O)[C@H](Cc2ccc3ccccc3c2)NC(=O)[C@H](Cc2c[nH]cn2)NC(=O)CSC[C@@H](C(N)=O)NC(=O)[C@H](C(C)C)NC(=O)[C@H](Cc2c[nH]c3ccccc23)NC(=O)[C@H](CCCCN)NC1=O [Compound 91] ({CH2CO}-H[2Nal]ISGRDW[Nle]KWVC-NH2; thioether N-13) | 
8 | 15.5 | CCCC[C@@H]1NC(=O)[C@H](Cc2c[nH]c3ccccc23)NC(=O)[C@H](CC(=O)O)NC(=O)[C@H](CCCCN)NC(=O)CNC(=O)[C@H](CO)NC(=O)[C@H]([C@@H](C)CC)NC(=O)[C@H](Cc2ccc3ccccc3c2)NC(=O)[C@H](CO)NC(=O)CSC[C@@H](C(N)=O)NC(=O)[C@H](C(C)C)NC(=O)[C@H](Cc2c[nH]c3ccccc23)NC(=O)[C@H](CCCNC(=N)N)NC1=O [Compound 92] ({CH2CO}-S[2Nal]ISGKDW[Nle]RWVC-NH2; thioether N-13) | 
9 | 14.2 | CC(C)[C@@H]1NC(=O)[C@H](Cc2c[nH]c3ccccc23)NC(=O)[C@H](C(C)C)NC(=O)[C@H](C(C)C)NC(=O)[C@H](Cc2c[nH]c3ccccc23)NC(=O)[C@H](CC(=O)O)NC(=O)[C@H](CCCCN)NC(=O)CNC(=O)[C@H](CO)NC(=O)[C@H](CCCNC(=N)N)NC(=O)[C@H](Cc2ccc3ccccc3c2)NC(=O)CSC[C@@H](C(N)=O)NC1=O [Compound 99] ({CH2CO}-[2Nal]RSGKDWVVWVC-NH2; thioether N-12) | 
10 | 19.5 | CCCC[C@@H]1NC(=O)[C@H](Cc2c[nH]c3ccccc23)NC(=O)[C@H](CC(N)=O)NC(=O)[C@H](Cc2c[nH]cn2)NC(=O)CNC(=O)[C@H](CO)NC(=O)[C@H](CCCNC(=N)N)NC(=O)[C@H](Cc2ccc3ccccc3c2)NC(=O)CSC[C@@H](C(N)=O)NC(=O)[C@H](C(C)C)NC(=O)[C@H](Cc2c[nH]c3ccccc23)NC(=O)[C@H](C(C)C)NC1=O [Compound 100] ({CH2CO}-[2Nal]RSGHNW[Nle]VWVC-NH2; thioether N-12) | 
11 | 19.6 | CCCC[C@@H]1NC(=O)[C@H](Cc2c[nH]c3ccccc23)NC(=O)[C@H](CC(=O)O)NC(=O)[C@H](Cc2c[nH]cn2)NC(=O)CNC(=O)[C@H](CO)NC(=O)[C@H](CCCNC(=N)N)NC(=O)[C@H](Cc2ccc3ccccc3c2)NC(=O)CSC[C@@H](C(N)=O)NC(=O)[C@H](C(C)C)NC(=O)[C@H](Cc2c[nH]c3ccccc23)NC(=O)[C@H](C(C)C)NC1=O [Compound 101] ({CH2CO}-[2Nal]RSGHDW[Nle]VWVC-NH2; thioether N-12) | 
